Measurements: patent publication US20170275270A1, “BENZYL SUBSTITUTED INDAZOLES” (Bayer Pharma Aktiengesellschaft, priority 2014, published 2017)
Like-named read-outs stand apart in the source and are kept apart here.

What was measured:
[1] = tested on: HeLa human cervical tumor cells; test: Proliferation assay (HeLa+Paclitaxel); details: read-out: Biological Assay 3: HeLa + Paclitaxel IC50, 3 nM paclitaxel, crystal violet;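 also: compounds at 0.001-10 µM added 4 h after paclitaxel, 92 h exposure, absorbance normalized to zero-point plate (0%) and untreated cells (100%), IC50 from 4-parameter fit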
HeLa = test: Proliferation assay (HeLa cell line); details: Homo sapiens, 96 h, read-out: Biological Assay 2: Proliferation assay (HeLa cell line) median IC50;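 also: crystal violet staining of cell number, scaled between a plate stained before dosing (0%) and cells left untreated (100%), compounds tested at 0.001-10 µM, IC50 via 4-parameter fit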
[2] = target: T1, catalytic domain of human Bub1 (amino acids 704-1085) (Homo sapiens, UniProt O43683); test: Bub1 kinase assay (TR-FRET); assay type: biochemical
T1 construct: catalytic domain of human Bub1 (amino acids 704-1085); His6 (N); made in house; host or cells: Hi5 insect cells
T1 sequence (O43683 704-1085): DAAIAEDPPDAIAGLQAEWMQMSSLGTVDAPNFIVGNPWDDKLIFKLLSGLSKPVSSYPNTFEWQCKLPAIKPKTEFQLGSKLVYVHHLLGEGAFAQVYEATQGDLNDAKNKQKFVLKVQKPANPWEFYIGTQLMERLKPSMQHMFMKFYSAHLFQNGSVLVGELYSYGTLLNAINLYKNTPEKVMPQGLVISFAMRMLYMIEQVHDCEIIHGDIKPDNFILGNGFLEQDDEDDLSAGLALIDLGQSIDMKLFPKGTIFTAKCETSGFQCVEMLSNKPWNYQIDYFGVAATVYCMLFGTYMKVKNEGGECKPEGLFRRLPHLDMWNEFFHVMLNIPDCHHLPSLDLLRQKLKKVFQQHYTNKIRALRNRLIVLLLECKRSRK
In short: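 TR-FRET read-out (Eu-anti-mouse IgG/anti-phosphoserine antibody to streptavidin-XL665 on biotinylated peptide) after EDTA stop and 1 h complex formation at 22° C. Kinase reaction ran 60 min at 22° C with 1:3.4 serial dilutions from 2 mM DMSO stocks. IC50 from 4-parameter logistic fit of normalized inhibition.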

Bub1 = Bub1 (Homo sapiens, UniProt O43683); test: Formation-Assay: phosphorylation status of histone 2A by inhibition of kinase activity of Bub1; assay type: cell-based; details: Biological Assay 4.1: H2A Formation IC50, co-treatment with Nocodazole 1 μg/ml, 16 h
Bub1, sequence (O43683 whole entry): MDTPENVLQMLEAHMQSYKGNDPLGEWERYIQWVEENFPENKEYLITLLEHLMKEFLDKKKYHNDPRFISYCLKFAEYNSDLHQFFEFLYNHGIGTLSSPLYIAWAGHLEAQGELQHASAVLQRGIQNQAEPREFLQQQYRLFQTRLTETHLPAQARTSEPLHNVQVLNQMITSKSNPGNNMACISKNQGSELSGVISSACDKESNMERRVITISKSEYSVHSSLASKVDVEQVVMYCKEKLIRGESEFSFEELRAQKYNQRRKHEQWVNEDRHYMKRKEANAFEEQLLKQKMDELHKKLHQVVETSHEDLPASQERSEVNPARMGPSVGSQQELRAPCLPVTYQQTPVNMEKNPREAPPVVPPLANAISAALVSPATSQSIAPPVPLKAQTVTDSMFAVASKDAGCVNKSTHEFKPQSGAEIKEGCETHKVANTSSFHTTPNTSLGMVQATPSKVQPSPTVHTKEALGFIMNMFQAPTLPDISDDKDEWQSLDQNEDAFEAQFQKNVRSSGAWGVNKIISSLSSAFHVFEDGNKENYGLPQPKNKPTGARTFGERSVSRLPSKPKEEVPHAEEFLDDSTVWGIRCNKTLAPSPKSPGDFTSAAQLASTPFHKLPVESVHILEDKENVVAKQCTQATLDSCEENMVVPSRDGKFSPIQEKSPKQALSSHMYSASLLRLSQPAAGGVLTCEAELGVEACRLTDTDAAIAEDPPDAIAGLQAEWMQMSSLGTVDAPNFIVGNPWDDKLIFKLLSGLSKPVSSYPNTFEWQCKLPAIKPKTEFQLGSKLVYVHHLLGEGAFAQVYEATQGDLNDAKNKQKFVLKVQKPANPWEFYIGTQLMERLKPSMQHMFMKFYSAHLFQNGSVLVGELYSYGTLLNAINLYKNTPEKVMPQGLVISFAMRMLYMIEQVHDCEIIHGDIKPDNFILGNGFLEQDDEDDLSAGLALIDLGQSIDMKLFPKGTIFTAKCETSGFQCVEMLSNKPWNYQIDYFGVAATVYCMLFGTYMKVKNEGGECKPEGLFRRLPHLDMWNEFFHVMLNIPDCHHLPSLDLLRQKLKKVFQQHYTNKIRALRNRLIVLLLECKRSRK
In short: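 Cells co-treated 16 h with Nocodazole (1 μg/ml) and compound (3 nM–10 μM), then fixed and immunostained for phospho-H2A, read by infrared imaging (800 nm) normalised to cell stain (700 nm). Nocodazole-only set as 100%, untreated cells as 0%.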

[3] = Biological Assay 1: Bub1 kinase assay median IC50, 10 μM ATP
[4] = 10 μM ATP, read-out: Biological Assay 1: Bub1 kinase assay median IC50

IC50 [1] [µM] | IC50 (HeLa) [µM] | IC50 [2, 3] [µM] | IC50 (Bub1) [µM] | IC50 [2, 4] [µM] | SMILES
0.09 | > 10 | 0.03 | 0.00079 |  | Cc1nccc(Nc2nc(-c3nn(Cc4c(F)cc(OCCO)cc4F)c4ccccc34)nc3c2CCC3)n1 [Example 2-6-18, 2-{3,5-difluoro-4-[(3-{4-[(2-methylpyrimidin-4-yl)amino]-6,7-dihydro-5H-cyclopenta[d]pyrimidin-2-yl}-1H-indazol-1-yl)methyl]phenoxy}ethanol]
0.14 | > 10 | 0.0089 | 0.0026 |  | OCCOc1cc(F)c(Cn2nc(-c3nc4c(c(Nc5ccncn5)n3)CCC4)c3ccccc32)c(F)c1 [Example 2-6-19, 2-[3,5-difluoro-4-({3-[4-(pyrimidin-4-ylamino)-6,7-dihydro-5H-cyclopenta[d]pyrimidin-2-yl]-1H-indazol-1-yl}methyl)phenoxy]ethanol]
0.14 | 3.4 |  | 0.0018 | 0.066 | Cc1cc(Nc2nc(-c3nn(Cc4c(F)cc(OCCO)cc4F)c4ccccc34)nc3c2CCC3)c(C)cn1 [Example 2-6-20, 2-{4-[(3-{4-[(2,5-dimethylpyridin-4-yl)amino]-6,7-dihydro-5H-cyclopenta[d]pyrimidin-2-yl}-1H-indazol-1-yl)methyl]-3,5-difluorophenoxy} ethanol]
0.17 | 3.4 | 0.011 | 0.084 |  | Cc1cc(Nc2nc(-c3nn(Cc4c(F)cc(OCCO)cc4F)c4ccccc34)nc3c2CCC3)c(F)cn1 [Example 2-6-21, 2-{3,5-difluoro-4-[(3-{4-[(5-fluoro-2-methylpyridin-4-yl)amino]-6,7-dihydro-5H-cyclopenta[d]pyrimidin-2-yl}-1H-indazol-1-yl)methyl]phenoxy}ethanol]
0.099 | 9.2 | 0.081 | 0.18 |  | Cc1nccc(Nc2nc(-c3nn(Cc4c(F)cc(OCCO)cc4F)c4ccccc34)nc3c2CC(C)(C)C3)n1 [Example 2-6-22, 2-{4-[(3-{6,6-dimethyl-4-[(2-methylpyrimidin-4-yl)amino]-6,7-dihydro-5H-cyclopenta[d]pyrimidin-2-yl}-1H-indazol-1-yl)methyl]-3,5-difluorophenoxy} ethanol]
0.064 | 3 | 0.082 | 0.012 |  | Cc1nccc(Nc2nc(-c3nn(Cc4c(F)cc(OCCO)cc4F)c4ccccc34)ncc2C2CCN(CC3CC3)CC2)n1 [Example 2-6-23, 2-{4-[(3-{5-[1-(cyclopropyl-methyl)piperidin-4-yl]-4-[(2-methylpyrimidin-4-yl)amino]pyrimidin-2-yl}-1H-indazol-1-yl)methyl]-3,5-difluorophenoxy} ethanol]
0.15 | > 10 | 0.12 | 0.014 |  | Cc1nccc(Nc2nc(-c3nn(Cc4c(F)cc(OCCO)cc4F)c4ccccc34)nc3c2CCC(C)(C)C3)n1 [Example 2-6-24, 2-{4-[(3-{7,7-dimethyl-4-[(2-methylpyrimidin-4-yl)amino]-5,6,7,8-tetrahydroquin-azolin-2-yl}-1H-indazol-1-yl)methyl]-3,5-difluorophenoxy} ethanol]
2.3 | 9.5 |  | 0.26 | 0.04 | OCCOc1cc(F)c(Cn2nc(-c3nc(CN4CCOCC4)cc(Nc4ccnnc4)n3)c3ccccc32)c(F)c1 [Example 2-6-37, 2-[3,5-difluoro-4-({3-[4-(morpholin-4-ylmethyl)-6-(pyridazin-4-ylamino)pyrimidin-2-yl]-1H-indazol-1-yl}methyl)phenoxy]ethanol]
0.93 | > 10 |  | 2.3 | 0.01 | OCCOc1cc(F)c(Cn2nc(-c3nc(CN4CCOCC4)cc(Nc4ccncc4)n3)c3ccccc32)c(F)c1 [Example 2-6-38, 2-[3,5-difluoro-4-({3-[4-(morpholin-4-ylmethyl)-6-(pyridin-4-ylamino)pyrimidin-2-yl]-1H-indazol-1-yl}methyl)phenoxy]ethanol]
